The experiment deals with T1, human TAS1R2-WT/TAS1R3-L95P (Homo sapiens, UniProt Q7RTX0+Q8TE23, L95P).
T1 construct: expressed in transfected cells; host or cells: HEK293T stably expressing Gα16gust44
T1 sequence (Q8TE23 20-839): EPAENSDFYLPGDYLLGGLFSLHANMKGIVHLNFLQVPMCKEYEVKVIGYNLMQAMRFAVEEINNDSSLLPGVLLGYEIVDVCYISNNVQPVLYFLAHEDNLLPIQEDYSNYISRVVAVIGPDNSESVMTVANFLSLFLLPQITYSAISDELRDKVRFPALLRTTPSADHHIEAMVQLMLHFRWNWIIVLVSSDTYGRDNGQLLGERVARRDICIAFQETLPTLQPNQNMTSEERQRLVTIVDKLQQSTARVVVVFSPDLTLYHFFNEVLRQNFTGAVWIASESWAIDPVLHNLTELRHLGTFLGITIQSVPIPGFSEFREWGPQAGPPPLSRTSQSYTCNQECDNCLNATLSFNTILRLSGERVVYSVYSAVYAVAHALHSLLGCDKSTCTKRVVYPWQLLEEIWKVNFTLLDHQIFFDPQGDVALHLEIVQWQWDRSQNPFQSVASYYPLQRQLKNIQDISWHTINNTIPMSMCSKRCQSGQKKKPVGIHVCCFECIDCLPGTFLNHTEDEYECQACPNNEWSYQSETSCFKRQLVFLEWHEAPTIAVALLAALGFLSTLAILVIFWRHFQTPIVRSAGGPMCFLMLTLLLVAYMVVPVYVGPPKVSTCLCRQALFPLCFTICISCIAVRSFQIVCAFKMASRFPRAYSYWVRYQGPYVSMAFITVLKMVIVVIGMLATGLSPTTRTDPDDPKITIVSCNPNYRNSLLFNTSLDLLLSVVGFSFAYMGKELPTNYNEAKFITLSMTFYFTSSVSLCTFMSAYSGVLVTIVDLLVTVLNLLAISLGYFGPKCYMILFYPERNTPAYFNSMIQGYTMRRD
T1 sequence (Q7RTX0 21-852 L95P): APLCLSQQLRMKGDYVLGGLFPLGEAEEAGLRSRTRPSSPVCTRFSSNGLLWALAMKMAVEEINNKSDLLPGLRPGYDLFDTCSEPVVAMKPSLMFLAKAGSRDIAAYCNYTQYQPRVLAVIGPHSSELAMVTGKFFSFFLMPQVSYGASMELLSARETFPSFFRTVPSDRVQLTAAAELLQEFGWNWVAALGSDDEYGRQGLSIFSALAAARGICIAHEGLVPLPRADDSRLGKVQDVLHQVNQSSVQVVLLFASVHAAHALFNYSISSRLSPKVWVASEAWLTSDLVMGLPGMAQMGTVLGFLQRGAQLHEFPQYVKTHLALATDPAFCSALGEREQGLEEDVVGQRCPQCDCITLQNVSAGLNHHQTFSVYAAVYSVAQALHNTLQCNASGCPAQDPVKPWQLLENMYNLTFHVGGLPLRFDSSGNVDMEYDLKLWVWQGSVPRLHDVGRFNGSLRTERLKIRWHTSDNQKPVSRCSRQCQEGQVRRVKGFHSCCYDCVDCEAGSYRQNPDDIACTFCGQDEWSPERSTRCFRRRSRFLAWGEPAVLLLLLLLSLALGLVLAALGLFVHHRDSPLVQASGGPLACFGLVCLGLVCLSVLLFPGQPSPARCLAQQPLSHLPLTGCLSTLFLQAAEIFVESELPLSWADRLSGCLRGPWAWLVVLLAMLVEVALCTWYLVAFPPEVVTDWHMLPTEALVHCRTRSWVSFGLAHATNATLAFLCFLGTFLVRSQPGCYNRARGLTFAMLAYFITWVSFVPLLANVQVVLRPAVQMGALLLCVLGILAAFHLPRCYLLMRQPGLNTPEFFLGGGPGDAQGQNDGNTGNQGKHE
As to the kind of experiment: Calcium mobilisation assay, TAS1R2-WT with TAS1R3 variant L95P. Format: cell-based. As to conditions: for EC50 / Max ΔF/F0: "-": no activation; for Max ΔF/F0: maximal signal amplitude. From the text: The coding sequences for TAS1R2 and TAS1R3 were commercially synthesised, and the human codon was optimised for expression in human cells. The coding sequences of human TAS1R2 and TAS1R3 were subcloned and inserted into the mammalian expression vectors pcDNA6/myc-HisA and pcDNA4/myc-HisA (Invitrogen; Thermo Fisher Scientific; Illkirch, France) between the EcoRI and NotI restriction sites, generating the plasmids pcDNA6-TAS1R2 and pcDNA4-TAS1R3, respectively. To increase protein expression in mammalian cells, an upstream start codon was used, which was a sequence called MAX, corresponding to the QBI SP163 element also described in pcDNA4-HisMax (Invitrogen; Thermo Fisher Scientific; Illkirch, France). To measure the expression level of the receptor by immunohistochemistry, we used the FLAG sequence ([…]) in the C-terminal position, which encodes the FLAG tag epitope. SNP variants of TAS1R2 and TAS1R3 were constructed based on […], respectively, using site-directed mutagenesis (Genewiz; Leipzig, Germany).
The HEK293T cells were kindly provided by Jay P. Slack (Givaudan Flavors Corporation; Cincinnati, OH, USA). HEK293T cells stably transfected with Gα16gust44 [43, 67] were seeded in poly-D-lysine-coated clear-bottom black 96-well plates (0.35 × 10^5 cells/well) in high-glucose DMEM supplemented with 2 mM GlutaMAX, 10% dialysed foetal bovine serum with penicillin/streptomycin and G418 (400 μg/mL) at 37 °C and 6.3% CO2 in a humidified atmosphere as previously reported. […] As a negative control, HEK293T cells were mock-transfected with the empty expression vector. After a further 24 h of incubation, the HEK293T cells were washed with C1 buffer (130 mM NaCl, 5 mM KCl, 10 mM HEPES pH 7.4 and 2 mM CaCl2). The 96-well plates containing the cells were then stimulated with sweet-tasting compounds. […] Different concentration ranges were tested depending on the sweet compound injected. The Ca^2+ changes were expressed as fractional changes in fluorescent light intensity: ΔF/F = (F − F0)/F0, where F was the fluorescent light intensity at each point, and F0 was the value of emitted fluorescent light prior to stimulus application. To calculate dose–response relationships, the changes in fluorescence upon stimulus application were averaged, mock-subtracted and baseline-corrected. The dose–response data obtained were adjusted using a 4-parameter logistic equation. The half-maximal effective concentrations (EC50 values) and maximal signal amplitudes were calculated using SigmaPlot software (version 15.0) (Systat Software; San Jose, CA, USA).
For in vitro calcium mobilisation assay performed on hTAS1R2-SNPs, hTAS1R3-SNPs and mTAS1R3-I60T, 6 to 7 concentrations were tested for each sweet compound, plus buffer alone. All concentration–receptor combinations were measured in duplicate, and each experiment was repeated at least 4 times (8 wells/concentration). Results were expressed for each concentration as ΔF/F mean ± SEM and represented as dose–response curves.
On the technique in general: A change in cytosolic calcium serves as a functional read-out for many receptors and channels.

Here are results for five molecules from paper PMC11945486, “TAS1R2/TAS1R3 Single-Nucleotide Polymorphisms Affect Sweet Taste Receptor Activation by Sweeteners: The SWEET Project” (Nutrients, 2025).

No end group written: not given here.

As usually defined, the EC50 is the concentration needed to bring the measured effect to its halfway point. Consider `C=C(C)[C@@H]1CC=C(/C=N/O)CC1` [Perillartine, perillartine], for which the “R1 = Variant EC50/WT EC50” value was found to be 2.5, the EC50 is 33.9 ± 2.8 µM and the “Max ΔF/F0” value was 0.14 ± 0.02.
As to “brazzein (QDKCKKVYENYPVSKCQLANQCNYDCKLDKHARSGECFYDEKRNLQCICDYCEY; ends and bridges not checked; cysteine pairing not given here; UniProt P56552 1-54, looked up) [sweet-tasting protein obtained by recombinant production using the yeast Pichia pastoris]”, the “R1 = Variant EC50/WT EC50” value stood at 19.3 and the “Max ΔF/F0” value was 0.10 ± 0.05.
As for thaumatin, the “R1 = Variant EC50/WT EC50” value came out at 2.6 and the “Max ΔF/F0” value is recorded as 0.89 ± 0.01.
For the molecule `C[C@H](CC[C@@H](O[C@@H]1O[C@H](CO[C@@H]2O[C@H](CO)[C@@H](O)[C@H](O)[C@H]2O)[C@@H](O)[C@H](O)[C@H]1O[C@@H]1O[C@H](CO)[C@@H](O)[C@H](O)[C@H]1O)C(C)(C)O)[C@H]1CC[C@@]2(C)[C@@H]3CC=C4[C@@H](CC[C@H](O[C@@H]5O[C@H](CO[C@@H]6O[C@H](CO)[C@@H](O)[C@H](O)[C@H]6O)[C@@H](O)[C@H](O)[C@H]5O)C4(C)C)[C@]3(C)[C@H](O)C[C@]12C` [Mogroside V, mogroside V], the “R1 = Variant EC50/WT EC50” value was determined as 8.4 and the “Max ΔF/F0” value came to 0.08.

B1: thaumatin (protein)
chain: ATFEIVNRCSYTVWAAASKGDAALDAGGRQLNSGESWTINVEPGTKGGKIWARTDCYFDDSGSGICKTGDCGGLLRCKRFGRPPTTLAEFSLNQYGKDYIDISNIKGFNVPMDFSPTTRGCRGVRCAADIVGQCPAKLKAPGGGCNDACTVFQTSEYCCTTGKCGPTEYSRFFKRLCPDAFSYVLDKPTTVTCPGSSNYRVTFCPTA
modifications: Eight disulfides
notes: sweet-tasting plant protein, E957
As for B1, the EC50 was 27.4 ± 5.8 µM.
